# Reference: US20130039928A1, “COMPOSITIONS AND METHODS FOR REVERSING CORTICOSTEROID RESISTANCE OR TREATING RESPIRATORY INFECTIONS” (priority 2010, published 2013)
# “Also recorded” adds a separate entry of the source.
# Columns and labels:
# [1] = test system: nontypeable Haemophilus influenzae
# Method: Human alveolar macrophages were purified from individual BAL samples by centrifugation and seeded onto 6-well tissue culture plates. After incubation for 2 h, non-adherent cells were removed and the adherent cells were incubated with R, S-sulforaphane (5 μM; LKT Laboratories, Inc., St. Paul, Minn.) and or DMSO in RPMI 1640 culture medium with 10% FBS and 1% penicillin-streptomycin (Invitrogen, Carlsbad, Calif.). After 16-20 h, adherent cells were scraped, suspended in RPMI 1640 culture media and plated onto 96-well tissue culture plates for bacterial phagocytosis and clearance assays. […] For MARCO antibody-depletion, alveolar macrophages were incubated with human anti-MARCO antibody (1 μg/ml; (Hycult, Uden, The Netherlands) for 4 hours prior to bacterial challenge. […]
# After treatment, macrophages (10^5 cells) were incubated with bacteria (PA or NTHI) for 4 h. […] The number of bacterial colonies was counted after 24 h.
# [2] = test system: Pseudomonas aeruginosa; conditions: THP-1 macrophages, 10 μM for 24 hours
# Method: To determine intracellular killing, macrophages were treated with vehicle (DMSO) or sulforaphane (10 μM) for 24 hours. Cells were then washed and the medium was replaced with serum-free medium. After the medium replacement, approximately 10^5 CFUs of PA were added to each well. After 1 h, the medium was removed and cells were washed, and the gentamicin-containing medium was added to kill bound, unphagocytosed bacteria. Cells were lysed at the indicated time points, and lysates were plated to determine viable intracellular bacteria.
# [3] = test system: CD80/86, MHC-11, CD14 and CD206; conditions: FACS
# Method: To examine the contribution of MARCO in mediating bacterial phagocytosis by alveolar macrophages following sulforaphane treatment, an antibody-depletion approach was employed. The specificity of anti-MARCO antibody was validated by immunoblot analysis (FIG. 12). […] To assess the effect of sulforaphane on the phenotype of macrophages, CD80/86, MHC-11, CD14 and CD206 were analyzed by FACS.
# [4] = test system: MARCO; conditions: alveolar macrophages from mice exposed to CS
# Method: (§1) C57BL/6J mice were housed under controlled conditions for temperature and humidity, using a 12-hour light/dark cycle. At 8 weeks of age, mice were exposed to CS for (2.5 h/day for 5 days/week) for 1 week or 6 months using a machine that produces cigarette smoke (TE-10, Teague Enterprises) and reference cigarettes (2R4F) with a total suspended particle concentration of 250 mg/m^3 as previously described (T. E. Sussan et al., Proc Natl Acad Sci USA, (Dec. 22, 2008)). Following exposure to CS, mice were inoculated with PA or NTHI at a dose of 10^3 CFU in 50 μl of PBS intranasally. For sulforaphane administration (0.5 mg/mouse of R, S-sulforaphane in PBS), a nebulizer (Aerogen, Inc., Galway, Ireland) designed specifically for small animals was used.
# [5] = test system: Pseudomonas aeruginosa; conditions: alveolar macrophages from mice exposed to CS, ex vivo
# Method: After treatment, macrophages (10^5 cells) were incubated with bacteria (PA or NTHI) for 4 h. Subsequently, 100 μL of cell free culture medium was aseptically plated and cultured on tryptose blood and or chocolate agar plates at 37° C. The number of bacterial colonies was counted after 24 h.
# Bacterial phagocytosis was quantified using a flow cytometry analysis.
# as §1
# [6] = test system: IL-8 gene; conditions: sulforaphane treatment with DEX
# Method: (§2) For inducing corticosteroid resistance, PMs were exposed to cigarette smoke condensate (CSC, 100 μg/ml; Murty Pharmaceuticals, Lexington, Ky.) for 16 h. Exposure to S-nitrosoglutathione (GSNO, 10 μM) was limited to 4 h. […] For assessing corticosteroid responsiveness, macrophages were incubated with dexamethasone (1 μM, Sigma) for 1 h followed by LPS (100 ng/ml, Sigma) for additional 4 h.
# (§3) Total RNA was extracted from the cells by lysis and specific binding to a silica membrance (Qiagen RNeasy kit, Qiagen, Valencia, Calif.), and qRT-PCR was performed by using primers and probe sets for human IL-8, NQO1, GCLM, and iNOS (Assay-on-Demand, Applied Biosystems, Foster City, Calif.). A real-time fluorescent PCR system (ABI 7000 Taqman system, Applied Biosystems) was used to perform these assays. β-actin was used as the normalization control.
# [7] = test system: NO; experiment: NO levels and iNOS expression in alveolar macrophages; type: cell-based, human; conditions: COPD alveolar macrophages, vs vehicle
# Method: as §2
# HDAC activity was measured using a fluorescent derivative of ε-acetyl-lysine from Enzo life sciences (Farmingdale, N.Y.) according to the manufacturer's recommendations. HDAC2 was immunoprecipitated for analysis of enzymatic activity.
# as §3
# [8] = test system: elastase; conditions: alveolar macrophages treated with or without sulforaphane
smiles,measurement,setting,value
C[S+]([O-])CCCCN=C=S (centres unmarked) [sulforaphane],clearance of nontypeable Haemophilus influenzae (decrease in CFU in culture medium),"[1]; COPD alveolar macrophages, compared to vehicle, 4 h with bacteria",40-95%
same,bactericidal activity towards nontypeable Haemophilus influenzae,[1]; cell-free medium with sulforaphane alone,no bactericidal activity
same,kinetics of intracellular killing,[2],moderate increase in the kinetics of intracellular killing
same,"expression of other markers (MHC-11, CD14)",[3],no significant difference
same,expression of receptors CD80/86 and CD206,[3],Moderate suppression
same,MARCO expression,[4],increased MARCO expression
same,bacterial phagocytic ability and clearance,[5],increased bacterial phagocytic ability and clearance
same,expression of the IL-8 gene,[6],concomitant reduction
same,NO levels,[7],significantly lower levels; also recorded: suppressed NO generation
same,iNOS expression,[7],significantly lower levels
same,elastase activity in cell free media,[8],inhibition of elastase activity
